Test [1] concerns pepper phytophthora blight (Phytopthora capsici). The test is described as follows: Suppression of pepper phytophthora blight on leaves. Format: in vivo. Particulars: 0.1 mM.
In test [2] the test system is tobacco bacterial rot (Pectobacterium carotovorum). As to the kind of experiment: Suppression of tobacco bacterial rot. Format: in vivo, Pectobacterium carotovorum SCC1. Summed up:
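Test compounds at 1, 10 and 100 ppm (from 20% methanol stock) were applied to tobacco leaves; 7 days later plants were sprayed with Pectobacterium carotovorum SCC1 at 10^8 cfu/mL and kept 3 days at 30° C. Lesion area scored visually as 0–100%.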

For test [3], the system named is GUS gene induced by PR-1α disease-resistance promoter. As to the kind of experiment: PR-1a GUS activation on tobacco leaves (MUG fluorescence). Format: in vivo, tobacco (Xanth-nc). The conditions noted are these: 0.1 mM, tobacco leaf injection, after three days. How it is done:
After the tobacco (Xanth-nc) bound with GUS gene induced by PR-1α disease-resistance promoter was grown for 3 weeks, 100 μL of the diluted solution of Compound 74 was injected to second leaves with a syringe. After three days, the surrounding leaves were collected in an internal diameter size of 5 mm with a cork borer, the samples thus obtained were added to a 1.5 mL of an eppendorf tube, and 20 μL of GUS extraction buffer solution was further added, ground, and then centrifuged at 8000 G for 3 minutes to obtain supernatant. The same amount of 2 mM MUG (4-methyl umbellifryl-B-glucuronide) solution was added, reacted at 37° C. for 1 hour, and then 960 μL of stop buffer solution (0.2 M, Na2CO3 solution) was added to be 1 mL. Since then, the fluorescence was measured with a TKO 100 fluorometer (Hoefoer Scientific Instruments, USA). At this time, the fluorescence amount was calibrated using a MU (4-methyl umbellyferon) as a standard reagent, and the GUS activity was calculated using MU-mM/sample−10 mg/time. The results thus obtained are listed in the following Table 2 and illustrated in FIG. 2.

This note sets out measurements from US20150119251A1, “AGRICULTURAL PLANT-PROTECTING AGENTS CONTAINING DIPEPTIDE DERIVATIVE AS ACTIVE INGREDIENT” (REPUBLIC OF KOREA (RURAL DEVELOPMENT ADMINISTRATION), priority 2012, published 2015).

SMILES strings stand for the structures.

In the case of `CSC(=O)c1cccc2nnsc12` [BTH, benzo-1,2,3-thiadiazole-7-carbothio acid S-methyl ester, reference compound], the Lesion outbreak rate in test [1] came to 17 area %; in test [2] (Table 3, tobacco, 1 ppm), 90%; in test [2] (Table 3, tobacco, 10 ppm), 90%; in test [2] (Table 3, tobacco, 100 ppm), 90%; in test [2] (Table 4, tobacco, 1 ppm) it was 88%; in test [2] (Table 4, tobacco, 10 ppm), 88%. In addition, the Lesion outbreak rate in test [2] (Table 4, tobacco, 100 ppm) turned out to be 88%; in test [2] (Table 5, tobacco, 10 ppm), 25%; in test [2] (Table 5, tobacco, 100 ppm) it was 25%; in test [2] (Table 6, tobacco, 1 ppm), 100%; in test [2] (Table 6, tobacco, 10 ppm), 100%; in test [2] (Table 6, tobacco, 100 ppm) it was 100%. Further, in test [3], the “PR1a GUS expression” value is given as 324,000 nM MU/10 mg FW/1 hr.
